Measured values taken from ChEMBL document CHEMBL1140040, “Synthesis and cytotoxic activity of some novel polycyclic gamma-butyrolactones” (Bioorg Med Chem Lett, 2008).
pIC50: −log10 of the molar value.

Columns and labels:
COLO 205 [1] = assay: Cytotoxicity against human COLO205 cells assessed as age growth inhibition at 50 uM after 48 hrs by sulforhodamine B assay; assay type: functional; details: COLO 205, 48 h, read-out: GI
COLO 205 [2] = assay: Cytotoxicity against human COLO205 cells assessed as age growth inhibition at 100 uM after 48 hrs by sulforhodamine B assay; assay type: functional; details: COLO 205, 48 h, read-out: GI
IGROV-1 [3] = assay: Cytotoxicity against human IGROV1 cells assessed as age growth inhibition at 10 uM after 48 hrs by sulforhodamine B assay; assay type: functional; details: IGROV-1, 48 h, read-out: GI
IGROV-1 [4] = assay: Cytotoxicity against human IGROV1 cells assessed as age growth inhibition at 50 uM after 48 hrs by sulforhodamine B assay; assay type: functional; details: IGROV-1, 48 h, read-out: GI
IGROV-1 [5] = assay: Cytotoxicity against human IGROV1 cells assessed as age growth inhibition at 100 uM after 48 hrs by sulforhodamine B assay; assay type: functional; details: IGROV-1, 48 h, read-out: GI
SK-OV-3 [6] = assay: Cytotoxicity against human SKOV3 cells assessed as age growth inhibition at 10 uM after 48 hrs by sulforhodamine B assay; assay type: functional; details: SK-OV-3, 48 h, read-out: GI
SK-OV-3 [7] = assay: Cytotoxicity against human SKOV3 cells assessed as age growth inhibition at 50 uM after 48 hrs by sulforhodamine B assay; assay type: functional; details: SK-OV-3, 48 h, read-out: GI
SK-OV-3 [8] = assay: Cytotoxicity against human SKOV3 cells assessed as age growth inhibition at 100 uM after 48 hrs by sulforhodamine B assay; assay type: functional; details: SK-OV-3, 48 h, read-out: GI
DU-145 [9] = assay: Cytotoxicity against human DU145 cells assessed as age growth inhibition at 10 uM after 48 hrs by sulforhodamine B assay; assay type: functional; details: DU-145, 48 h, read-out: GI
DU-145 [10] = assay: Cytotoxicity against human DU145 cells assessed as age growth inhibition at 50 uM after 48 hrs by sulforhodamine B assay; assay type: functional; details: DU-145, 48 h, read-out: GI
DU-145 [11] = assay: Cytotoxicity against human DU145 cells assessed as age growth inhibition at 100 uM after 48 hrs by sulforhodamine B assay; assay type: functional; details: DU-145, 48 h, read-out: GI
HEp-2 [12] = assay: Cytotoxicity against human HEP2 cells assessed as age growth inhibition at 10 uM after 48 hrs by sulforhodamine B assay; assay type: functional; details: HEp-2, 48 h, read-out: GI
HEp-2 [13] = assay: Cytotoxicity against human HEP2 cells assessed as age growth inhibition at 50 uM after 48 hrs by sulforhodamine B assay; assay type: functional; details: HEp-2, 48 h, read-out: GI
HEp-2 [14] = assay: Cytotoxicity against human HEP2 cells assessed as age growth inhibition at 100 uM after 48 hrs by sulforhodamine B assay; assay type: functional; details: HEp-2, 48 h, read-out: GI
SF-295 [15] = assay: Cytotoxicity against human SF295 cells assessed as age growth inhibition at 10 uM after 48 hrs by sulforhodamine B assay; assay type: functional; details: SF-295, 48 h, read-out: GI
SF-295 [16] = assay: Cytotoxicity against human SF295 cells assessed as age growth inhibition at 50 uM after 48 hrs by sulforhodamine B assay; assay type: functional; details: SF-295, 48 h, read-out: GI
SF-295 [17] = assay: Cytotoxicity against human SF295 cells assessed as age growth inhibition at 100 uM after 48 hrs by sulforhodamine B assay; assay type: functional; details: SF-295, 48 h, read-out: GI
A549 [18] = assay: Antiproliferative activity against human A549 cells after 48 hrs by sulforhodamine B assay; assay type: functional, cell-based; details: A549, 48 h
HOP-62 [19] = assay: Antiproliferative activity against human HOP62 cells after 48 hrs by sulforhodamine B assay; assay type: functional, cell-based; details: HOP-62, 48 h
HCT-15 [20] = assay: Antiproliferative activity against human HCT15 cells after 48 hrs by sulforhodamine B assay; assay type: functional, cell-based; details: HCT-15, 48 h
COLO 205 [21] = assay: Antiproliferative activity against human COLO205 cells after 48 hrs by sulforhodamine B assay; assay type: functional, cell-based; details: COLO 205, 48 h
IGROV-1 [22] = assay: Antiproliferative activity against human IGROV1 cells after 48 hrs by sulforhodamine B assay; assay type: functional, cell-based; details: IGROV-1, 48 h
SK-OV-3 [23] = assay: Antiproliferative activity against human SKOV3 cells after 48 hrs by sulforhodamine B assay; assay type: functional, cell-based; details: SK-OV-3, 48 h
DU-145 [24] = assay: Antiproliferative activity against human DU145 cells after 48 hrs by sulforhodamine B assay; assay type: functional, cell-based; details: DU-145, 48 h
HEp-2 [25] = assay: Antiproliferative activity against human HEP2 cells after 48 hrs by sulforhodamine B assay; assay type: functional, cell-based; details: HEp-2, 48 h
SF-295 [26] = assay: Antiproliferative activity against human SF295 cells after 48 hrs by sulforhodamine B assay; assay type: functional, cell-based; details: SF-295, 48 h
A549 [27] = assay: Cytotoxicity against human A549 cells assessed as age growth inhibition at 10 uM after 48 hrs by sulforhodamine B assay; assay type: functional; details: A549, 48 h, read-out: GI
A549 [28] = assay: Cytotoxicity against human A549 cells assessed as age growth inhibition at 50 uM after 48 hrs by sulforhodamine B assay; assay type: functional; details: A549, 48 h, read-out: GI
A549 [29] = assay: Cytotoxicity against human A549 cells assessed as age growth inhibition at 100 uM after 48 hrs by sulforhodamine B assay; assay type: functional; details: A549, 48 h, read-out: GI
HOP-62 [30] = assay: Cytotoxicity against human HOP62 cells assessed as age growth inhibition at 10 uM after 48 hrs by sulforhodamine B assay; assay type: functional; details: HOP-62, 48 h, read-out: GI
HOP-62 [31] = assay: Cytotoxicity against human HOP62 cells assessed as age growth inhibition at 50 uM after 48 hrs by sulforhodamine B assay; assay type: functional; details: HOP-62, 48 h, read-out: GI
HOP-62 [32] = assay: Cytotoxicity against human HOP62 cells assessed as age growth inhibition at 100 uM after 48 hrs by sulforhodamine B assay; assay type: functional; details: HOP-62, 48 h, read-out: GI
HCT-15 [33] = assay: Cytotoxicity against human HCT15 cells assessed as age growth inhibition at 10 uM after 48 hrs by sulforhodamine B assay; assay type: functional; details: HCT-15, 48 h, read-out: GI
HCT-15 [34] = assay: Cytotoxicity against human HCT15 cells assessed as age growth inhibition at 50 uM after 48 hrs by sulforhodamine B assay; assay type: functional; details: HCT-15, 48 h, read-out: GI
HCT-15 [35] = assay: Cytotoxicity against human HCT15 cells assessed as age growth inhibition at 100 uM after 48 hrs by sulforhodamine B assay; assay type: functional; details: HCT-15, 48 h, read-out: GI
COLO 205 [36] = assay: Cytotoxicity against human COLO205 cells assessed as age growth inhibition at 10 uM after 48 hrs by sulforhodamine B assay; assay type: functional; details: COLO 205, 48 h, read-out: GI

Structure (SMILES) | inhibition of growth at 50 µM (COLO 205 [1]) [%] | inhibition of growth at 100 µM (COLO 205 [2]) [%] | inhibition of growth at 10 µM (IGROV-1 [3]) [%] | inhibition of growth at 50 µM (IGROV-1 [4]) [%] | inhibition of growth at 100 µM (IGROV-1 [5]) [%] | inhibition of growth at 10 µM (SK-OV-3 [6]) [%] | inhibition of growth at 50 µM (SK-OV-3 [7]) [%] | inhibition of growth at 100 µM (SK-OV-3 [8]) [%] | inhibition of growth at 10 µM (DU-145 [9]) [%] | inhibition of growth at 50 µM (DU-145 [10]) [%] | inhibition of growth at 100 µM (DU-145 [11]) [%] | inhibition of growth at 10 µM (HEp-2 [12]) [%] | inhibition of growth at 50 µM (HEp-2 [13]) [%] | inhibition of growth at 100 µM (HEp-2 [14]) [%] | inhibition of growth at 10 µM (SF-295 [15]) [%] | inhibition of growth at 50 µM (SF-295 [16]) [%] | inhibition of growth at 100 µM (SF-295 [17]) [%] | pIC50 (A549 [18]) | pIC50 (HOP-62 [19]) | pIC50 (HCT-15 [20]) | other results
COc1ccc([C@H]2OC(=O)[C@@H]3C=C4C(C)(C)CCC[C@]4(C)[C@H]23)cc1 | 15 | 52 | 3 | 30 | 51 | 0 | 0 | 21 | 8 | 12 | 43 | 3 | 23 | 27 | 0 | 16 | 16 | 4.05 | 4.02 | 4.11 | pIC50 (COLO 205 [21]): 4.00; pIC50 (IGROV-1 [22]): 4.03; pIC50 (SK-OV-3 [23]): < 4.00; pIC50 (DU-145 [24]): < 4.00; pIC50 (HEp-2 [25]): < 4.00; pIC50 (SF-295 [26]): < 4.00; inhibition of growth at 10 µM (A549 [27]): 8%; inhibition of growth at 50 µM (A549 [28]): 31%; inhibition of growth at 100 µM (A549 [29]): 55%; inhibition of growth at 10 µM (HOP-62 [30]): 10%; inhibition of growth at 50 µM (HOP-62 [31]): 30%; inhibition of growth at 100 µM (HOP-62 [32]): 52%; inhibition of growth at 10 µM (HCT-15 [33]): 16%; inhibition of growth at 50 µM (HCT-15 [34]): 45%; inhibition of growth at 100 µM (HCT-15 [35]): 55%; inhibition of growth at 10 µM (COLO 205 [36]): 0%
CC1(C)CCC[C@@]2(C)C1=C[C@H]1C(=O)O[C@H](c3ccc(C#N)cc3)[C@H]12 | 24 | 24 | 6 | 25 | 29 | 17 | 25 | 27 | 16 | 22 | 25 | 5 | 18 | 19 | 12 | 17 | 20 | < 4.00 | < 4.00 | < 4.00 | pIC50 (COLO 205 [21]): < 4.00; pIC50 (IGROV-1 [22]): < 4.00; pIC50 (SK-OV-3 [23]): < 4.00; pIC50 (DU-145 [24]): < 4.00; pIC50 (HEp-2 [25]): < 4.00; pIC50 (SF-295 [26]): < 4.00; inhibition of growth at 10 µM (A549 [27]): 15%; inhibition of growth at 50 µM (A549 [28]): 24%; inhibition of growth at 100 µM (A549 [29]): 25%; inhibition of growth at 10 µM (HOP-62 [30]): 5%; inhibition of growth at 50 µM (HOP-62 [31]): 9%; inhibition of growth at 100 µM (HOP-62 [32]): 18%; inhibition of growth at 10 µM (HCT-15 [33]): 14%; inhibition of growth at 50 µM (HCT-15 [34]): 25%; inhibition of growth at 100 µM (HCT-15 [35]): 30%; inhibition of growth at 10 µM (COLO 205 [36]): 2%
CC1(C)CCC[C@@]2(C)C1=C[C@H]1C(=O)O[C@H](c3ccco3)[C@H]12 | 20 | 64 | 1 | 24 | 67 | 6 | 9 | 57 | 17 | 37 | 76 | 8 | 19 | 52 | 0 | 17 | 38 | < 4.00 | < 4.00 | 4.30 | pIC50 (COLO 205 [21]): 4.10; pIC50 (IGROV-1 [22]): 4.10; pIC50 (SK-OV-3 [23]): 4.04; pIC50 (DU-145 [24]): 4.20; pIC50 (HEp-2 [25]): 4.01; pIC50 (SF-295 [26]): < 4.00; inhibition of growth at 10 µM (A549 [27]): 19%; inhibition of growth at 50 µM (A549 [28]): 20%; inhibition of growth at 100 µM (A549 [29]): 25%; inhibition of growth at 10 µM (HOP-62 [30]): 2%; inhibition of growth at 50 µM (HOP-62 [31]): 8%; inhibition of growth at 100 µM (HOP-62 [32]): 46%; inhibition of growth at 10 µM (HCT-15 [33]): 14%; inhibition of growth at 50 µM (HCT-15 [34]): 50%; inhibition of growth at 100 µM (HCT-15 [35]): 56%; inhibition of growth at 10 µM (COLO 205 [36]): 16%
CC1(C)CCC[C@@]2(C)C1=C[C@H]1C(=O)O[C@H](c3ccc(Br)cc3)[C@H]12 | 14 | 32 | 7 | 26 | 30 | 6 | 28 | 52 | 21 | 27 | 28 | 3 | 18 | 22 | 0 | 18 | 21 | < 4.00 | 4.31 | < 4.00 | pIC50 (COLO 205 [21]): < 4.00; pIC50 (IGROV-1 [22]): < 4.00; pIC50 (SK-OV-3 [23]): 4.02; pIC50 (DU-145 [24]): < 4.00; pIC50 (HEp-2 [25]): < 4.00; pIC50 (SF-295 [26]): < 4.00; inhibition of growth at 10 µM (A549 [27]): 8%; inhibition of growth at 50 µM (A549 [28]): 10%; inhibition of growth at 100 µM (A549 [29]): 26%; inhibition of growth at 10 µM (HOP-62 [30]): 0%; inhibition of growth at 50 µM (HOP-62 [31]): 55%; inhibition of growth at 100 µM (HOP-62 [32]): 66%; inhibition of growth at 10 µM (HCT-15 [33]): 7%; inhibition of growth at 50 µM (HCT-15 [34]): 32%; inhibition of growth at 100 µM (HCT-15 [35]): 40%; inhibition of growth at 10 µM (COLO 205 [36]): 14%
